{"source": "patent US20070213402A1", "about": "“Compounds which interact with the thyroid hormone receptor for the treatment of fibrotic disease” (priority 1998, published 2007)", "key": {"[1]": {"test_system": "collagenase I promoter", "experiment": "Experiment 1: collagenase I promoter (-73/+63)-luciferase in CV1 cells transfected with pSG5ARF (androgen receptor)", "type": "cell-based, African Green Monkey", "settings": "for % control (AR): Blank = 100", "description": "(§1) Two plasmid constructs were introduced by standard calcium phosphate precipitation of DNA followed by glycerol shock (Ausubel F M, Brent R, Kingston D D, Moore J G et al Current protocols in molecular biology 1994 Greene Publishing Associates/Wiley-Interscience, New York, N.Y.) using a transformed African Green Monkey kidney cell line (CV1) (Schneikert J, Peterziel H, Defossez P-A, Klocker H, de Launoit Y and Cato A C B Androgen receptor-Ets protein interaction is a novel mechanism for steroid hormone-mediated down-modulation of matrix metalloproteinase expression, Journal of Biological Chemistry. Vol 271(39) (pp 23907-23913), 1996).\n(§2) Accordingly, the following two plasmids were included into CV1 cells described above — • (a) Either of GR1 or pSG5ARF containing glucocorticoid or androgen receptor (AR) respectively, both at 2 ug per 5×10^5 cells, driven by the Rous sarcoma virus promoter, and • (b) a plasmid containing the −73/+63 portion of the collagenase I promoter linked to luciferase gene at 8 ug per 5×10^5 cells.\n(§3) CPII was compound II above, clobuzarit."}, "[2]": {"test_system": "NFκB", "experiment": "Experiment 3: NFκB-driven 3-EnhTK-Luc reporter in CV1 cells with GR1", "type": "cell-based, African Green Monkey", "description": "as §1\nThis experiment was intended to show the effect of compounds I on a mediator of the immune response, nuclear factor—κB (NF-κB).\nThe following two plasmids were included into CV1 cells described above— • (a) GR1 as described above at 2 ug per 5×10^5 cells, and • (b) a plasmid designated 3-EnhTK-Luc (at 0.5 ug per 5×10^5 cells) which contains a transcription site that is activated by NFκB.\nThe blank represented the inclusion of these two plasmids alone; the relatively high value was caused by (i) the high level of serum in the culture, and (ii) the associated stress that the cells underwent during the […]—both of which upregulate NFκB. There was also a related relatively low activation of TNF (at 4 ng/ml) above a serum containing blank in the experiment. TNF was tumour necrosis factor alpha."}, "[3]": {"test_system": "collagenase I promoter", "experiment": "Experiment 1: collagenase I promoter (-73/+63)-luciferase in CV1 cells transfected with GR1 (glucocorticoid receptor)", "type": "cell-based, African Green Monkey", "settings": "for % control (GR1): Blank = 100", "description": "as §1, §2, §3"}, "[4]": {"test_system": "collagenase (MMP-1) promoter", "experiment": "Experiment 4.2: collagenase (MMP-1) promoter-luciferase in MCF-7 cells with antisense construct for the thyroid receptor", "type": "cell-based, human", "settings": "MCF-7 + thyroid receptor antisense, substance added alone", "description": "(§4) These experiments were intended to identify the receptor through which compounds I might be acting to block collagenase promoter activity.\n(§5) Transfection procedure hereinbefore described with CV1 cells was repeated using MCF-7 mammary breast cancer cells derived from pleural effusion from a breast cancer patient. Additionally, each experiment included transfection of a plasmid (at 8 ug per 5×10^5 cells) containing the −517/+63 section of the collagenase (MMP-1) promoter linked to the luciferase gene. TPA was used as above to stimulate activity of the collagenase promoter resulting in luciferase production. Compound II or 3,3,5-triiodo-L-thyronine (T3) was included (both at 10^−8M), the latter being a known ligand for the thyroid hormone receptor.\nExperiment 4.2. The procedure of Experiment 4.1 was repeated except that a second plasmid, containing 662 bp antisense construct for the thyroid receptor (at 8 ug per 5×10^5 cells) was additionally transfected."}, "[5]": {"test_system": "collagenase (MMP-1) promoter", "experiment": "Experiment 4.3: collagenase (MMP-1) promoter-luciferase in MCF-7 cells with transfected chick thyroid hormone receptor", "type": "cell-based, human", "settings": "MCF-7 + chick thyroid hormone receptor, substance added alone", "description": "as §4, §5"}, "[6]": {"test_system": "collagenase (MMP-1) promoter", "experiment": "Experiment 4.1: collagenase (MMP-1) promoter (-517/+63)-luciferase in MCF-7 cells, endogenous thyroid hormone receptors", "type": "cell-based, human", "settings": "MCF-7, endogenous thyroid hormone receptors, substance added alone", "description": "as §4, §5\nExperiment 4.1. As MCF-7 cells express endogenous thyroid hormone receptors, only the collagenase promoter plasmid (at 8 ug per 5×10^5 cells) was transfected into the MCF-7 cells."}, "[7]": {"test_system": "collagenase I promoter", "experiment": "Experiment 1: collagenase I promoter (-73/+63)-luciferase in CV1 cells, no receptor plasmid (Empty)", "type": "cell-based, African Green Monkey", "settings": "no receptor, substance added alone", "description": "as §1, §2, §3"}, "[8]": {"settings": "substance added with TPA 75 ng/ml, DHT 10^-7M"}, "[9]": {"settings": "substance added with TPA 75 ng/ml, Dex 10^-7M"}, "[10]": {"settings": "substance added alone, TPA 75 ng/ml"}}}
{"smiles": "C[C@]12CCC(=O)C[C@@H]1CC[C@@H]1[C@@H]2CC[C@]2(C)[C@@H](O)CC[C@@H]12", "note": "[DHT, dihydroxytestosterone, reference compound]", "values": [{"measurement": "Raw counts (AR)", "setting": "[1]; [8]", "result": 3711, "unit": "counts"}, {"measurement": "% control (AR)", "setting": "[1]; [8]", "result": 139, "unit": "%"}, {"measurement": "collagenase I activation, in words (AR)", "setting": "[1]; TPA-stimulated, androgen receptor", "result": "able to down regulate this activation"}]}
{"smiles": "C[C@@H]1C[C@H]2[C@@H]3CCC4=CC(=O)C=C[C@]4(C)[C@@]3(F)[C@@H](O)C[C@]2(C)[C@@]1(O)C(=O)CO", "note": "[Dex, dexamethazone, reference compound]", "values": [{"measurement": "Raw Counts", "setting": "[2]; substance added with TNF 4 ng/ml", "result": 18525, "unit": "counts"}, {"measurement": "% Control", "setting": "[2]; substance added with TNF 4 ng/ml, Blank = 100", "result": 31, "unit": "%"}, {"measurement": "inhibitory effect on NFκB transcription, in words", "setting": "[2]; with TNF", "result": "marked effect"}, {"measurement": "Raw counts (GR1)", "setting": "[3]; [9]", "result": 10981, "unit": "counts"}, {"measurement": "% control (GR1)", "setting": "[3]; [9]", "result": 86, "unit": "%"}, {"measurement": "collagenase I activation, in words (GR1)", "setting": "[3]; TPA-stimulated, glucocorticoid receptor", "result": "able to down regulate this activation"}]}
{"smiles": "CCCCCCCCCCCCCC(=O)O[C@@H]1[C@@H](C)[C@@]2(O)[C@@H](C=C(CO)C[C@]3(O)C(=O)C(C)=C[C@@H]23)[C@@H]2C(C)(C)[C@]12OC(C)=O", "note": "[TPA, 12-O—tetradecanoylphorbol-13-acetate, reference compound]", "values": [{"measurement": "% Control", "setting": "[4]; Blank = 100", "result": 341.2, "unit": "%"}, {"measurement": "Raw Counts", "setting": "[4]; CPII 10^-8M", "result": 4975, "unit": "counts"}, {"measurement": "% control (AR)", "setting": "[1]; substance added alone", "result": 436, "unit": "%"}, {"measurement": "Raw counts (AR)", "setting": "[1]; [10]", "result": 11639, "unit": "counts"}, {"measurement": "% control (GR1)", "setting": "[3]; substance added alone", "result": 448, "unit": "%"}, {"measurement": "Raw counts (GR1)", "setting": "[3]; [10]", "result": 57519, "unit": "counts"}, {"measurement": "% Control", "setting": "[5]; Blank = 100", "result": 528, "unit": "%"}, {"measurement": "Raw Counts", "setting": "[5]; CPII 10^-8M", "result": 11528, "unit": "counts"}, {"measurement": "% Control", "setting": "[6]; Blank = 100", "result": 1174.3, "unit": "%"}, {"measurement": "Raw Counts", "setting": "[6]; CPII 10^-8M", "result": 147665, "unit": "counts"}, {"measurement": "Raw counts (Empty)", "setting": "[7]; luciferase, TPA 75 ng/ml", "result": 5407, "unit": "counts"}, {"measurement": "% control (Empty)", "setting": "[7]; Blank = 100", "result": 225, "unit": "%"}]}
